According to ChEMBL document CHEMBL1201862, “PubChem BioAssay data set” (2004):
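Interpolation was linear, between the two tested concentrations surrounding the appropriate level; five concentrations were tested over 48 hours in 96-well plates. GI50 marks 50% less growth.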 The source made the active and inactive calls. Cut-off read from the data, not from the text of the source: active = GI50 up to about 1.1 µM and inactive = higher.

Columns and labels:
Test in all cases: DTP human tumour cell line panel, 48 h
786-0 = tested on: 786-0
A549 = tested on: A549
ACHN = tested on: ACHN
BT-549 = tested on: BT-549
CAKI-1 = tested on: CAKI-1
CCRF-CEM = tested on: CCRF-CEM
COLO 205 = tested on: COLO 205
DU-145 = tested on: DU-145
EKVX = tested on: EKVX
HCC 2998 = tested on: HCC 2998
HCT-116 = tested on: HCT-116
HCT-15 = tested on: HCT-15
HOP-62 = tested on: HOP-62
HOP-92 = tested on: HOP-92
HT-29 = tested on: HT-29
Hs-578T = tested on: Hs-578T
IGROV-1 = tested on: IGROV-1
K562 = tested on: K562
KM12 = tested on: KM12
LOX IMVI = tested on: LOX IMVI
MCF7 = tested on: MCF7
MDA-MB-231 = tested on: MDA-MB-231
MDA-MB-435 = tested on: MDA-MB-435
MDA-N = tested on: MDA-N
MOLT-4 = tested on: MOLT-4
NCI-H226 = tested on: NCI-H226
NCI-H23 = tested on: NCI-H23
NCI-H460 = tested on: NCI-H460
NCI-H522 = tested on: NCI-H522
NCI/ADR-RES = tested on: NCI/ADR-RES
OVCAR-3 = tested on: OVCAR-3
OVCAR-4 = tested on: OVCAR-4
OVCAR-5 = tested on: OVCAR-5
OVCAR-8 = tested on: OVCAR-8
PC-3 = tested on: PC-3
RPMI-8226 = tested on: RPMI-8226
RXF 393 = tested on: RXF 393
SF-268 = tested on: SF-268
SF-295 = tested on: SF-295
SF-539 = tested on: SF-539
SK-MEL-28 = tested on: SK-MEL-28
SK-MEL-2 = tested on: SK-MEL-2
SK-MEL-5 = tested on: SK-MEL-5
SK-OV-3 = tested on: SK-OV-3
SN12C = tested on: SN12C
SNB-19 = tested on: SNB-19
SNB-75 = tested on: SNB-75
SR = tested on: SR
SW-620 = tested on: SW-620
T47D = tested on: T47D
TK-10 = tested on: TK-10
U-251 = tested on: U-251
UACC-257 = tested on: UACC-257
UACC-62 = tested on: UACC-62
UO-31 = tested on: UO-31
A498 = tested on: A498
HL-60 = tested on: HL-60
M14 = tested on: M14
Malme-3M = tested on: Malme-3M

SMILES: C=C1C(=O)O[C@H]2[C@H]3O[C@@H](C[C@@H]12)[C@](C)(O)CCCC(C)=CCC[C@H]3C
- GI50 (786-0): 54.3 µM (inactive)
- GI50 (A549): 16.8 µM (inactive)
- GI50 (ACHN): 10.1 µM (inactive)
- GI50 (BT-549): 0.457 µM (active)
- GI50 (CAKI-1): 10.8 µM (inactive)
- GI50 (CCRF-CEM): 0.807 µM (active)
- GI50 (COLO 205): 3.38 µM (inactive)
- GI50 (DU-145): 13.1 µM (inactive)
- GI50 (EKVX): 10.4 µM (inactive)
- GI50 (HCC 2998): 11.1 µM (inactive)
- GI50 (HCT-116): 13.6 µM (inactive)
- GI50 (HCT-15): 7.35 µM
- GI50 (HOP-62): 16.7 µM (inactive)
- GI50 (HOP-92): 1.34 µM (inactive)
- GI50 (HT-29): 13.5 µM (inactive)
- GI50 (Hs-578T): 3.9 µM (inactive)
- GI50 (IGROV-1): 1.67 µM (inactive)
- GI50 (K562): 6.37 µM (inactive)
- GI50 (KM12): 14.1 µM (inactive)
- GI50 (LOX IMVI): 14.3 µM (inactive)
- GI50 (MCF7): 7.26 µM (inactive)
- GI50 (MDA-MB-231): 11.7 µM (inactive)
- GI50 (MDA-MB-435): 3.86 µM (inactive)
- GI50 (MDA-N): 16.1 µM (inactive)
- GI50 (MOLT-4): 2.08 µM (inactive)
- GI50 (NCI-H226): 18.1 µM (inactive)
- GI50 (NCI-H23): 14.5 µM (inactive)
- GI50 (NCI-H460): 5.18 µM (inactive)
- GI50 (NCI-H522): 4.36 µM (inactive)
- GI50 (NCI/ADR-RES): 8.2 µM (inactive)
- GI50 (OVCAR-3): 13.9 µM (inactive)
- GI50 (OVCAR-4): 16.1 µM (inactive)
- GI50 (OVCAR-5): 14.6 µM (inactive)
- GI50 (OVCAR-8): 5.97 µM (inactive)
- GI50 (PC-3): 12.2 µM (inactive)
- GI50 (RPMI-8226): 3.17 µM (inactive)
- GI50 (RXF 393): 4.91 µM (inactive)
- GI50 (SF-268): 8.04 µM (inactive)
- GI50 (SF-295): 16.5 µM (inactive)
- GI50 (SF-539): 10.2 µM (inactive)
- GI50 (SK-MEL-28): 11.5 µM (inactive)
- GI50 (SK-MEL-2): 15 µM (inactive)
- GI50 (SK-MEL-5): 10.8 µM (inactive)
- GI50 (SK-OV-3): 19 µM (inactive)
- GI50 (SN12C): 11.9 µM (inactive)
- GI50 (SNB-19): 16.9 µM (inactive)
- GI50 (SNB-75): 10.5 µM (inactive)
- GI50 (SR): 28.1 µM (inactive)
- GI50 (SW-620): 5.13 µM (inactive)
- GI50 (T47D): 19.1 µM (inactive)
- GI50 (TK-10): 3.24 µM (inactive)
- GI50 (U-251): 14 µM (inactive)
- GI50 (UACC-257): 10.3 µM (inactive)
- GI50 (UACC-62): 10.2 µM (inactive)
- GI50 (UO-31): 11.4 µM (inactive)

SMILES: COC(=O)Nc1nc2cc(S(=O)(=O)NC(CC(C)C)C(=O)OC)ccc2[nH]1 (stereo unspecified)
- GI50 (786-0): 3.14 µM (inactive)
- GI50 (A498): 3.13 µM (inactive)
- GI50 (A549): 7.29 µM (inactive)
- GI50 (ACHN): 11.1 µM (inactive)
- GI50 (BT-549): 35.7 µM (inactive)
- GI50 (CAKI-1): 3.66 µM (inactive)
- GI50 (CCRF-CEM): 3.52 µM (inactive)
- GI50 (COLO 205): 3.22 µM (inactive)
- GI50 (DU-145): 2.43 µM (inactive)
- GI50 (EKVX): 3.93 µM (inactive)
- GI50 (HCT-116): 2.32 µM (inactive)
- GI50 (HCT-15): 2.81 µM
- GI50 (HL-60): 2.69 µM (inactive)
- GI50 (HOP-62): 3.48 µM (inactive)
- GI50 (HOP-92): 2.83 µM (inactive)
- GI50 (HT-29): 2.81 µM (inactive)
- GI50 (Hs-578T): 0.818 µM (active)
- GI50 (IGROV-1): 2.25 µM (inactive)
- GI50 (K562): 3.06 µM (inactive)
- GI50 (KM12): 2.19 µM (inactive)
- GI50 (LOX IMVI): 3.63 µM (inactive)
- GI50 (M14): 1.8 µM (inactive)
- GI50 (MCF7): 1.65 µM (inactive)
- GI50 (MDA-MB-231): 6.32 µM (inactive)
- GI50 (MDA-MB-435): 0.396 µM (active)
- GI50 (MDA-N): 0.414 µM (active)
- GI50 (MOLT-4): 3.67 µM (inactive)
- GI50 (Malme-3M): 3.08 µM (inactive)
- GI50 (NCI-H226): 10.8 µM (inactive)
- GI50 (NCI-H23): 3.25 µM (inactive)
- GI50 (NCI-H460): 4.17 µM (inactive)
- GI50 (NCI-H522): 0.197 µM (active)
- GI50 (NCI/ADR-RES): 6.08 µM (inactive)
- GI50 (OVCAR-3): 0.721 µM (active)
- GI50 (OVCAR-4): 4.83 µM (inactive)
- GI50 (OVCAR-5): 3.87 µM (inactive)
- GI50 (OVCAR-8): 3.96 µM (inactive)
- GI50 (PC-3): 2.37 µM (inactive)
- GI50 (RPMI-8226): 3.28 µM (inactive)
- GI50 (RXF 393): 3.21 µM (inactive)
- GI50 (SF-268): 10.8 µM (inactive)
- GI50 (SF-295): 1.83 µM (inactive)
- GI50 (SF-539): 4.48 µM (inactive)
- GI50 (SK-MEL-28): 4.35 µM (inactive)
- GI50 (SK-MEL-2): 8.83 µM (inactive)
- GI50 (SK-MEL-5): 0.7 µM (active)
- GI50 (SK-OV-3): 4.53 µM (inactive)
- GI50 (SN12C): 7.89 µM (inactive)
- GI50 (SNB-19): 2.45 µM (inactive)
- GI50 (SNB-75): 2.44 µM (inactive)
- GI50 (SW-620): 3.25 µM (inactive)
- GI50 (T47D): 4.19 µM (inactive)
- GI50 (TK-10): 6.47 µM (inactive)
- GI50 (U-251): 4.12 µM (inactive)
- GI50 (UACC-62): 4.01 µM (inactive)
- GI50 (UO-31): 5.96 µM (inactive)
